Experimental data published in patent US10526347B2, “3-(3H-imidazo[4,5-B]pyridin-2-yl)-1H-pyrazolo[3,4-B]pyridine and therapeutic uses thereof” (Samumed, LLC, priority 2014, dated 2020).

How the values were obtained:
[1] = system: Wnt activity (SW480 colon carcinoma cells stably expressing the Sp5-Luc reporter gene); experiment: Sp5-Luc reporter gene screening assay for Wnt activity; assay type: cell-based; conditions: Homo sapiens
Source text: The screening assay for Wnt activity is described as follows. Reporter cell lines can be generated by stably transducing cancer cell lines (e.g., colon cancer) or primary cells (e.g., IEC-6 intestinal cells) with a lentiviral construct that includes a Wnt-responsive promoter driving expression of the firefly luciferase gene.
SW480 colon carcinoma cells were transduced with a lentiviral vector expressing luciferase with a human Sp5 promoter consisting of a sequence of eight TCF/LEF binding sites. SW480 cells stably expressing the Sp5-Luc reporter gene and a hygromycin resistance gene were selected by treatment with 150 μg/ml of hygromycin for 7 days. These stably transduced SW480 cells were expanded in cell culture and used for all further screening activities. For Sp5-Luc reporter gene assays, the cells were plated at 10,000 cells/well in 96-well plates with growth medium containing 10% fetal calf serum and incubated overnight at 37° C. and 5% CO2. Each compound was dissolved in DMSO as a 10 mM stock in standard j-vials and used to prepare compound source plates in dose-response format with 3-fold serial dilutions and a 10 mM top concentration. Compound transfer from serially diluted source plates to assay plates containing the cells was accomplished using a pintool (Multimek 96, Beckman equipped with V&P Scientific FP1S50H pins) based liquid handling protocol. This protocol used a slotted pin to transfer 50 nl of compound from a source plate well to an assay plate well containing 50 μl of cells in growth medium. […] Control wells received 50 nl of DMSO treatment for normalization and calculating IC50 values. The treated cells were incubated at 37° C. and 5% CO2 for an additional forty-two hours. Following incubation, the growth medium was removed and 50 μl of BrightGlo luminescence reagent (Promega) was added to each well of the 96-well assay plates. The plates were placed on an orbital shaker for 5 min and then luminescence was quantified on the Victor3 (Perkin Elmer) plate reader. Readings were normalized to DMSO only treated cells, and normalized activities were utilized for IC50 calculations using the dose-response log (inhibitor) vs. response -variable slope (four parameters) nonlinear regression feature available in GraphPad Prism 5.0 or 6.0.

[2] = system: primary human fibroblasts derived from IPF patients (LL29 cells); experiment: Inhibition of the fibrotic process in TGF-β1 treated IPF patient fibroblasts (αSMA staining); assay type: cell-based; conditions: Fibroblast, 96 h, LL29 cells treated with TGF-β1 (20 ng/mL), 4 days, read-out: Inhibition of fibrosis EC50
Source text: The above synthesized compounds were screened using primary human fibroblasts (derived from IPF patients) treated with TGF-β1 to determine their ability to inhibit the fibrotic process.
Primary human fibroblasts derived from IPF patients (LL29 cells) [^1Xiaoqiu Liu, et. al., “Fibrotic Lung Fibroblasts Show Blunted Inhibition by cAMP Due to Deficient cAMP Response Element-Binding Protein Phosphorylation”, Journal of Pharmacology and Experimental Therapeutics (2005), 315(2), 678-687; ^2Watts, K. L., et. al., “RhoA signaling modulates cyclin D1 expression in human lung fibroblasts; implications for idiopathic pulmonary fibrosis”, Respiratory Research (2006), 7(1), 88] were obtained from American Type Culture Collection (ATCC) and expanded in F12 medium supplemented with 15% Fetal Bovine Serum and Penicillin/Streptomycin.
Each compound was dissolved in DMSO as a 10 mM stock and used to prepare compound source plates. Serial dilution (1:2, 11-point dose-response curves from 10 μM to 1.87 nM) and compound transfer was performed using the ECHO 550 (Labcyte, Sunnyvale, Calif.) into 384-well clear bottom assay plates (Greiner Bio-One) with appropriate DMSO backfill for a final DMSO concentration of 0.1%. LL29 cells were plated at 1,500 cells/well in 80 μl/well F12 medium supplemented with 1% Fetal Bovine Serum. One hour after addition of the cells, TGF-β1 (Peprotech; 20 ng/mL) was added to the plates to induce fibrosis (ref. 1 and 2 above). Wells treated with TGF-β1 and containing DMSO were used as controls. Cells were incubated at 37° C. and 5% CO2 for 4 days. Following incubation for 4 days, SYTOX green nucleic acid stain (Life Technologies [Thermo Fisher Scientific]) was added to the wells at a final concentration of 1 uM and incubated at room temperature for 30 min. Cells were then fixed using 4% formaldehyde (Electron Microscopy Sciences), washed 3 times with PBS followed by blocking and permeabilization using 3% Bovine Serum Albumin (BSA; Sigma) and 0.3% Triton X-100 (Sigma) in PBS. Cells were then stained with antibody specific to α-smooth muscle actin (αSMA; Abcam) (ref. 1 and 2 above) in 3% Bovine Serum Albumin (BSA; Sigma) and 0.3% Triton X-100 (Sigma) in PBS, and incubated overnight at 4° C. Cells were then washed 3 times with PBS, followed by incubation with Alexa Flor-647 conjugated secondary antibody (Life Technologies [Thermo Fisher Scientific]) and DAPI at room temperature for 1 hour. Cells were then washed 3 times with PBS and plates were sealed for imaging. αSMA staining was imaged by excitation at 630 nm and emission at 665 nm and quantified using the Compartmental Analysis program on the CellInsight CX5 (Thermo Scientific). Dead or apoptotic cells were excluded from analysis based on positive SYTOX green staining. % of total cells positive for αSMA were counted in each well and normalized to the average of 11 wells treated with TGF-β1 on the same plate using Dotmatics' Studies Software. The normalized averages (fold change over untreated) of 3 replicate wells for each compound concentration were used to create dose-responses curves and EC50 values were calculated using non-linear regression curve fit in the Dotmatics' Studies Software. The EC50 values are reported.

| SMILES | IC50 [1] [nM] | EC50 [2] [nM] |
| --- | --- | --- |
| O=C(Nc1cncc(-c2cnc3[nH]nc(-c4nc5c(-c6ccncc6)ccnc5[nH]4)c3c2)c1)C1CCCCC1 [Compound 106, N-(5-(3-(7-(Pyridin-4-yl)-3H-imidazo[4,5-b]pyridin-2-yl)-1H-pyrazolo[3,4-b]pyridin-5-yl)pyridin-3-yl)cyclohexanecarboxamide] | > 10000 | ≥ 9990 |
| O=C(Nc1cncc(-c2cnc3[nH]nc(-c4nc5c(N6CCCCC6)ccnc5[nH]4)c3c2)c1)C1CC1 [Compound 151, N-(5-(3-(7-(Piperidin-1-yl)-3H-imidazo[4,5-b]pyridin-2-yl)-1H-pyrazolo[3,4-b]pyridin-5-yl)pyridin-3-yl)cyclopropanecarboxamide] | 247 | 414 |
| Cc1cn(-c2ccnc3[nH]c(-c4n[nH]c5ncc(-c6cncc(NC(=O)C(C)(C)C)c6)cc45)nc23)cn1 [Compound 165, N-(5-(3-(7-(4-Methyl-1H-imidazol-1-yl)-3H-imidazo[4,5-b]pyridin-2-yl)-1H-pyrazolo[3,4-b]pyridin-5-yl)pyridin-3-yl)pivalamide] | > 10000 | ≥ 9990 |
| FC1(F)CCN(Cc2cncc(-c3cnc4[nH]nc(-c5nc6c(N7CCCCC7)ccnc6[nH]5)c4c3)c2)C1 [Compound 157, 5-(5-((3,3-Difluoropyrrolidin-1-yl)methyl)pyridin-3-yl)-3-(7-(piperidin-1-yl)-3H-imidazo[4,5-b]pyridin-2-yl)-1H-pyrazolo[3,4-b]pyridine] | 4210 | ≤ 9 |
| CN(C)Cc1cncc(-c2cnc3[nH]nc(-c4nc5c(-c6cccs6)ccnc5[nH]4)c3c2)c1 [Compound 297, N,N-Dimethyl-1-(5-(3-(7-(thiophen-2-yl)-3H-imidazo[4,5-b]pyridin-2-yl)-1H-pyrazolo[3,4-b]pyridin-5-yl)pyridin-3-yl)methanamine] | > 10000 | ≥ 9990 |
| Cc1cn(-c2ccnc3[nH]c(-c4n[nH]c5ncc(-c6cncc(CN7CCCC7)c6)cc45)nc23)cn1 [Compound 171, 3-(7-(4-Methyl-1H-imidazol-1-yl)-3H-imidazo[4,5-b]pyridin-2-yl)-5-(5-(pyrrolidin-1-ylmethyl)pyridin-3-yl)-1H-pyrazolo[3,4-b]pyridine] | 276 | ≤ 9 |
| Cn1cc(-c2cnc3[nH]nc(-c4nc5c(-c6cccc(F)c6)ccnc5[nH]4)c3c2)cn1 [Compound 912, 3-(7-(3-Fluorophenyl)-3H-imidazo[4,5-b]pyridin-2-yl)-5-(1-methyl-1H-pyrazol-4-yl)-1H-pyrazolo[3,4-b]pyridine] | 221 | 118 |
| CN(C)CC(=O)Nc1cncc(-c2cnc3[nH]nc(-c4nc5c(-c6cccc(F)c6)ccnc5[nH]4)c3c2)c1 [Compound 1409, 2-(Dimethylamino)-N-(5-(3-(7-(3-fluorophenyl)-3H-imidazo[4,5-b]pyridin-2-yl)-1H-pyrazolo[3,4-b]pyridin-5-yl)pyridin-3-yl)acetamide] | 3990 | ≤ 9 |
| CC(C)CC(=O)Nc1cncc(-c2cnc3[nH]nc(-c4nc5c(-c6ccc(F)s6)ccnc5[nH]4)c3c2)c1 [Compound 312, N-(5-(3-(7-(5-Fluorothiophen-2-yl)-3H-imidazo[4,5-b]pyridin-2-yl)-1H-pyrazolo[3,4-b]pyridin-5-yl)pyridin-3-yl)-3-methylbutanamide] | 27 | 189 |
| c1cc(-c2ccoc2)c2nc(-c3n[nH]c4ncc(-c5cncc(CNCC6CCCC6)c5)cc34)[nH]c2n1 [Compound 282, 1-Cyclopentyl-N-((5-(3-(7-(furan-3-yl)-3H-imidazo[4,5-b]pyridin-2-yl)-1H-pyrazolo[3,4-b]pyridin-5-yl)pyridin-3-yl)methyl)methanamine] | > 10000 | ≥ 9990 |
| CN1CCN(c2ccnc3[nH]c(-c4n[nH]c5ncc(-c6cncc(N)c6)cc45)nc23)CC1 [Compound 186, 5-(3-(7-(4-Methylpiperazin-1-yl)-3H-imidazo[4,5-b]pyridin-2-yl)-1H-pyrazolo[3,4-b]pyridin-5-yl)pyridin-3-amine] | > 10000 | ≥ 9990 |
| Fc1ccc(-c2ccnc3[nH]c(-c4n[nH]c5ncc(-c6cncc(CN7CCCC7)c6)cc45)nc23)cc1 [Compound 33, 3-(7-(4-Fluorophenyl)-3H-imidazo[4,5-b]pyridin-2-yl)-5-(5-(pyrrolidin-1-ylmethyl)pyridin-3-yl)-1H-pyrazolo[3,4-b]pyridine] | 144 | 7800 |
| Fc1cccc(-c2ccnc3[nH]c(-c4n[nH]c5ncc(-c6cncc(OC7CCNCC7)c6)cc45)nc23)c1 [Compound 916, 3-(7-(3-Fluorophenyl)-3H-imidazo[4,5-b]pyridin-2-yl)-5-(5-(piperidin-4-yloxy)pyridin-3-yl)-1H-pyrazolo[3,4-b]pyridine] | > 10000 | ≤ 9 |
| O=C(Cc1ccccc1)Nc1cncc(-c2cnc3[nH]nc(-c4nc5cccnc5[nH]4)c3c2)c1 [Compound 216, N-(5-(3-(3H-Imidazo[4,5-b]pyridin-2-yl)-1H-pyrazolo[3,4-b]pyridin-5-yl)pyridin-3-yl)-2-phenylacetamide] | 751 | ≥ 9990 |
| CN(C)CCOc1cncc(-c2cnc3[nH]nc(-c4nc5c(-c6cccc(F)c6)ccnc5[nH]4)c3c2)c1 [Compound 919, 2-((5-(3-(7-(3-Fluorophenyl)-3H-imidazo[4,5-b]pyridin-2-yl)-1H-pyrazolo [3,4-b]pyridin-5-yl)pyridin-3-yl)oxy)-N,N-dimethylethan-1-amine] | > 10000 | ≤ 9 |
| Fc1cccc(-c2ccnc3[nH]c(-c4n[nH]c5ncc(-c6cnccn6)cc45)nc23)c1 [Compound 926, 3-(7-(3-Fluorophenyl)-3H-imidazo[4,5-b]pyridin-2-yl)-5-(pyrazin-2-yl)-1H-pyrazolo[3,4-b]pyridine] | > 10000 | 13 |
| CC(C)Nc1cncc(-c2cnc3[nH]nc(-c4nc5c(-c6ccoc6)ccnc5[nH]4)c3c2)c1 [Compound 270, 5-(3-(7-(Furan-3-yl)-3H-imidazo[4,5-b]pyridin-2-yl)-1H-pyrazolo[3,4-b]pyridin-5-yl)-N-isopropylpyridin-3-amine] | 44.3 | 786 |
| CC(C)C(=O)Nc1cncc(-c2cnc3[nH]nc(-c4nc5c(N6CCN(C)CC6)ccnc5[nH]4)c3c2)c1 [Compound 192, N-(5-(3-(7-(4-Methylpiperazin-1-yl)-3H-imidazo[4,5-b]pyridin-2-yl)-1H-pyrazolo[3,4-b]pyridin-5-yl)pyridin-3-yl)isobutyramide] | > 10000 | ≤ 9 |
